Test results: patent US8802117B2 (Mavi Sud S.r.l., priority 2006, dated 2014)
Entries after “also recorded” stand apart in the source; their conditions may differ.

Tests used:
[1] = Overall in vitro and in vivo tests of tables 1-9 (fibroblast growth, ATP, collagen, IL-8, hydration, lipids, lipid peroxides, melanin); settings: in association with melatonin, concentrations being equal
Protocol: Fibroblasts of NB1RGB strain were used (2×10^5 cell/ml) and suspended in the α-MEM culture medium placed in 10 Petri dishes (containing 10% foetal bovine serum (FBS), 100 units/ml penicillin and 100 µg/ml streptomycin). while two were left as control. All products were additioned in a 1 μg/ml concentration. All biochemical processes require energy that is accumulated in the form of ATP (adenosyn-triphosphate). […] Out of the 9 culture-containing Petri dishes used, 8 were additioned with 1% μg/ml of the different substances to be tested, whereas one served as control. A continuous and regular collagen synthesis is of fundamental importance for the ECM (extracellular matrix) structure, and therefore for skin elasticity and compactness and wrinkle reduction. Collagen 1 presence was verified with the use of specific antibodies on all ten cell cultures, 8 of which enriched with 1% μl/ml of the various substances directly introduced in the culture medium, and one as control. Collected blood aliquots, pre-supplemented and non-supplemented with the components under study (1 μl/ml) were subdivided into 10 Petri dishes, 8 of which were further supplemented with 10 μl/ml Tumor Necrose Factor a (TNF-α), and one left as control. […] IL-8 amounts were determined photometrically, by specific antibodies. […] During the checking, skin surface lipids and hydration were verified by 3C System. Lipid peroxides were checked with the Pugliesi method (Pugliesi P. (1990) Assessment of Antiaging Products. In: W.C. […] This experiment was meant to assess the protective activity of these compounds if and when taken orally. […] (International Units)/ml penicillin and […] streptomycin) containing 2 mM teophylline. The suspension was subdivided into 7 500-μl portions. To each portion, placed in suitable bars, […] of the various mixtures of active agents were added. Of each mixture 6 samples were prepared.

[2] = test system: anagen phase of hair cycle; experiment: Action on the anagen phase of hair cycle: lotions A, B, C on the scalp of volunteers for 60 days; assay type: in vivo, human; settings: topical lotion morning and evening
Description: Thirty volunteers (15 women and 15 men) suffering from general hair problems: slight thinning out, thinning, continual loss of hair and occasional formation of forms of alopecia restricted to scalp areas, were subjected to the treatment.
All subjects were given, under double-blind conditions, a lotion to be applied morning and evening by light friction, in the amount of 5/6 drops poured on the various areas and deemed sufficient for the treatment of the entire scalp.
The study lasted 60 days.
At day 0, an area of about 1 cm^2 was delimited in the anteroparietal zone of the scalp, from which hair was carefully removed. Removed hair were weighted to verify the mass thereof, and the number of follicles present was counted by a suitable grid.
At day +60, the number and weight of regrown hair were reassessed, again checking the number of follicles present.

nerve cell cultures = experiment: Preliminary investigation of cell vitality and toxicity on nerve cell cultures (in vitro cellular models); assay type: cell-based

Compound | enhancement of melatonin action (synergy) [1] | further results
CC1=C(/C=C/C(C)=C/C=C/C(C)=C/C=C/C=C(C)/C=C/C=C(C)/C=C/C2=C(C)CCCC2(C)C)C(C)(C)CCC1 [beta-carotene] | significantly enhance the bioprotective activity of melatonin; also recorded: further enhance the positive effects of melatonin | 
CC1=NCC[C@@H](C(=O)O)N1 [ectoine] | significantly enhance the bioprotective activity of melatonin | 
O=C(O)CCCCC1CCSS1 (stereo not drawn) [lipoic acid] | significantly enhance the bioprotective activity of melatonin; also recorded: further enhance the positive effects of melatonin; also recorded: tendentially more active than carotenoids | 
CC1=C[C@H](O)CC(C)(C)[C@H]1/C=C/C(C)=C/C=C/C(C)=C/C=C/C=C(C)/C=C/C=C(C)/C=C/C1=C(C)C[C@@H](O)CC1(C)C [lutein] | significantly enhance the bioprotective activity of melatonin; also recorded: further enhance the positive effects of melatonin | 
COc1ccc2[nH]cc(CCNC(C)=O)c2c1 [melatonin] |  | anagen phase of hair / hair regrowth [2]: causes an increase of the anagen phase of hair, thereby enhancing its regrowth; hair weight (volume, body) [2]: without however exerting an effect on the hair weight itself; toxicity / reduction of cell vitality (nerve cell cultures; increasing concentrations, 3-mg melatonin alone vs association of melatonin, carotenoid, immunostimulant each 11-mg): cell vitality tends to reduce; also recorded: far more toxic; cytoprotective action towards free radicals of Oxygen (ROS), cell vitality (nerve cell cultures; suitable concentrations, in vitro model): capable of preserving cell vitality
beta-glucan | significantly enhance the bioprotective activity of melatonin; also recorded: tendentially more active than ectoine | 
